This experiment in a line: Inhibition of esterase in male Ostrinia nubilalis (European corn borer) antenna.

SMILES strings stand for the structures.

For orientation: IC50 means the point on the concentration scale where inhibition reaches its midpoint. With `CC/C=C\CCCCCCCCCCC(=O)C(F)(F)F` [(Z)-11-tetradecenyl trifluoromethyl ketone], the half-inhibitory concentration (IC50) turned out to be 0.28 µM.

In turn, `CC/C=C\CCCCCCCCCC(=O)C(F)(F)F` [(Z)-10-tridecenyl trifluoromethyl ketone] displayed an IC50 of 7.5 µM.

The record behind these values is BindingDB's records for doi:10.1021/jf901979k (University of Lleida, 2009).
